Assay: recombinant barcode read abundance after kanamycin selection (control-corrected) (log10(CPM+1)); higher = more efficient recombination; sequences stand for … in AGTGCAGAGAAAATCGGCCAGTTTTCTCTGCCTGCAGTCCGCATGCCGT…AGATTTATGCAGCGGACTGCCTTTCTCCCAAAGTGATAAACCGGACAGTATCATGGACCGGTTTTCCCGGTAATCCGTATTTGCAAGGTTGGTTTCACT; site = the 11-nt target
How it was run: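 In a pooled screen in E. coli, targets were paired with target-binding loops of the IS621 bridge RNA. Each oligo carried a promoter, a target, a barcode and the first 104 bridge RNA bases driven by J23119, and was Gibson-cloned into a vector holding the remaining 73 bp and a T7-inducible recombinase before co-electroporation with a donor plasmid. Duplicate platings went onto chloramphenicol/ampicillin LB agar as the control or onto chloramphenicol/ampicillin/kanamycin with 0.1 mM IPTG. Recombination efficiency is the averaged, control-corrected count per million of barcodes at recombinant junctions, given as log10(CPM+1).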
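Also: IS621 recombinase and bridge RNA in Escherichia coli cells.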

Sequence	recombinant barcode read abundance (log10)
GATAGAGCTTGGGTTCTAACCTGTTGCCG (site GATATAGCTAG)	0
GATAGGCCTTGGGTTCTAACCTGTTGCTT (site AATTGGCCTAA)	0.0314
GATAGGCCTTGGGTTCTAACCTGTTGCTT (site GATAGGCCTAA)	0.371
GATAGTACTTGGGTTCTAACCTGTTGCCT (site GATAGTACTAG)	1.48
GATAGTACTTGGGTTCTAACCTGTTGCCT (site GATAGTCCTAG)	0.0718
GATAGTACTTGGGTTCTAACCTGTTGCCT (site GATAGTGCTAG)	0.0995
GATAGTACTTGGGTTCTAACCTGTTGCCT (site GATAGTTCTAG)	0.17
GATAGTTCTTGGGTTCTAACCTGTTGCCT (site GATAGTACTAG)	0.0904
GATAGTTCTTGGGTTCTAACCTGTTGCCT (site GATAGTCCTAG)	0.675
GATAGTTCTTGGGTTCTAACCTGTTGCCT (site GATAGTGCTAG)	0.132
GATAGTTCTTGGGTTCTAACCTGTTGCCT (site GATAGTTCTAG)	0.264
GATCATCCTTGGGTTCTAACCTGTTGCCT (site GATCATCCTAG)	0.364
GATCATCCTTGGGTTCTAACCTGTTGCCT (site GTTCATCCTAG)	0.0462
GATCCATCTTGGGTTCTAACCTGTTGCCT (site GATCCATCTAG)	0.561
GATCCATCTTGGGTTCTAACCTGTTGCCT (site GCTCCATCTAG)	0.251
GATCCATCTTGGGTTCTAACCTGTTGCCT (site GGTCCATCTAG)	0.209
GATCCATCTTGGGTTCTAACCTGTTGCCT (site GTTCCATCTAG)	0.142
GATCCGTCTTGGGTTCTAACCTGTTGCGG (site GATCCGTCTCC)	0.136
GATCCGTCTTGGGTTCTAACCTGTTGCGG (site GGTCCGGCTCC)	0.551
GATCCTACTTGGGTTCTAACCTGTTGCCT (site GATCCTACTAG)	1.14
GATCCTACTTGGGTTCTAACCTGTTGCCT (site GCTCCTACTAG)	0.0495
GATCCTACTTGGGTTCTAACCTGTTGCCT (site GGTCCTACTAG)	0.346

Sequence	recombinant barcode read abundance (log10)
GATCCTACTTGGGTTCTAACCTGTTGCCT (site GTTCCTACTAG)	0.0681
GATCGATCTTGGGTTCTAACCTGTTGCGT (site GATCGATCTAA)	0.197
GATCGATCTTGGGTTCTAACCTGTTGCGT (site GATCGATCTAC)	1.46
GATCGATCTTGGGTTCTAACCTGTTGCGT (site GATCGATCTAG)	0.284
GATCGATCTTGGGTTCTAACCTGTTGCGT (site GATCGATCTAT)	0.265
GATCTGCCTTGGGTTCTAACCTGTTGCCT (site GATCAGCCTAG)	0.246
GATCTGCCTTGGGTTCTAACCTGTTGCCT (site GATCTGCCTAG)	0.984
GATGGGACTTGGGTTCTAACCTGTTGCCG (site GATAGGACTAG)	0.0533
GATGGGACTTGGGTTCTAACCTGTTGCCG (site GATGGGACTCG)	2.19
GATGTGCCTTGGGTTCTAACCTGTTGCGT (site CCGCGAGCTCG)	0.0696
GATGTGCCTTGGGTTCTAACCTGTTGCGT (site GATGTGCCTAC)	2.57
GATTATGCTTGGGTTCTAACCTGTTGCCT (site GAGTATGCTAG)	0.259
GATTATGCTTGGGTTCTAACCTGTTGCCT (site GATTATGCTAG)	0.615
GATTCTACTTGGGTTCTAACCTGTTGCTT (site GAATCTACTAA)	0.155
GATTCTACTTGGGTTCTAACCTGTTGCTT (site GACTCTACTAA)	0.22
GATTCTACTTGGGTTCTAACCTGTTGCTT (site GAGTCTACTAA)	0.813
GATTCTACTTGGGTTCTAACCTGTTGCTT (site GATTCTACTAA)	0.0583
GATTTCGCTTGGGTTCTAACCTGTTGCCT (site ATCAGTTCTCA)	0.0643
GATTTCGCTTGGGTTCTAACCTGTTGCCT (site GATTTCGCTAG)	0.42
GCAAGCTCTTGGGTTCTAACCTGTTGCTA (site GCAAGCTCTTA)	1.3
GCAAGCTCTTGGGTTCTAACCTGTTGCTA (site GCAAGGTCTTA)	0.36
GCAAGGGCTTGGGTTCTAACCTGTTGCCG (site GCAAGGGCTCG)	1.24

Sequence	recombinant barcode read abundance (log10)
GCAAGGGCTTGGGTTCTAACCTGTTGCCG (site GCTAGGGCTCT)	0.303
GCAAGGTCTTGGGTTCTAACCTGTTGCAT (site CGTTCTCCTTA)	0.18
GCAAGGTCTTGGGTTCTAACCTGTTGCAT (site GCAAGGTCTAT)	2.5
GCAAGGTCTTGGGTTCTAACCTGTTGCTA (site GCAAGCTCTTA)	0.133
GCAAGGTCTTGGGTTCTAACCTGTTGCTA (site GCAAGGTCTTA)	1.98
GCAAGTCCTTGGGTTCTAACCTGTTGCGT (site CATGCCTCTCG)	0.0651
GCAAGTCCTTGGGTTCTAACCTGTTGCGT (site GCAAGTCCTAC)	2.47
GCAAGTTCTTGGGTTCTAACCTGTTGCCT (site GAAAGTTCTAG)	0.113
GCAAGTTCTTGGGTTCTAACCTGTTGCCT (site GCAAGTTCTAG)	1.33
GCAAGTTCTTGGGTTCTAACCTGTTGCCT (site GGAAGTTCTAG)	0.172
GCAAGTTCTTGGGTTCTAACCTGTTGCCT (site GTAAGTTCTAG)	0.229
GCAATATCTTGGGTTCTAACCTGTTGCCT (site AAGTCTCCTCT)	0.0108
GCAATATCTTGGGTTCTAACCTGTTGCCT (site GCAATATCTAG)	1.26
GCACAACCTTGGGTTCTAACCTGTTGCCT (site GCACAACCTAG)	1.89
GCACAACCTTGGGTTCTAACCTGTTGCCT (site GCACCACCTAG)	0.0258
GCACAACCTTGGGTTCTAACCTGTTGCCT (site GCACGACCTAG)	0.214
GCACAACCTTGGGTTCTAACCTGTTGCCT (site GCACTACCTAG)	0.0085
GCACACACTTGGGTTCTAACCTGTTGCTG (site GAACACACTCG)	0
GCACACACTTGGGTTCTAACCTGTTGCTG (site GCACACACTCA)	2.5
GCACACTCTTGGGTTCTAACCTGTTGCCT (site GCACACTCTAG)	2.43
GCACACTCTTGGGTTCTAACCTGTTGCCT (site GCACCCTCTAG)	0.128
GCACACTCTTGGGTTCTAACCTGTTGCCT (site GCACGCTCTAG)	0

Sequence	recombinant barcode read abundance (log10)
GCACACTCTTGGGTTCTAACCTGTTGCCT (site GCACTCTCTAG)	0.261
GCACATTCTTGGGTTCTAACCTGTTGCCT (site GCACATACTAG)	0.0258
GCACATTCTTGGGTTCTAACCTGTTGCCT (site GCACATTCTAG)	1.17
GCACCCTCTTGGGTTCTAACCTGTTGCCT (site GCACACTCTAG)	0.0655
GCACCCTCTTGGGTTCTAACCTGTTGCCT (site GCACCCTCTAG)	2.67
GCACCCTCTTGGGTTCTAACCTGTTGCCT (site GCACGCTCTAG)	0.0715
GCACCCTCTTGGGTTCTAACCTGTTGCCT (site GCACTCTCTAG)	0.0191
GCACGTGCTTGGGTTCTAACCTGTTGCCT (site GCACGTGCTAG)	0.624
GCACGTGCTTGGGTTCTAACCTGTTGCCT (site GCCCGTGCTAG)	0.141
GCACGTGCTTGGGTTCTAACCTGTTGCCT (site GCGCGTGCTAG)	0.0268
GCACGTGCTTGGGTTCTAACCTGTTGCCT (site GCTCGTGCTAG)	0.0446
GCACTAGCTTGGGTTCTAACCTGTTGCGT (site GCACTAACTAG)	0.17
GCACTAGCTTGGGTTCTAACCTGTTGCGT (site GCACTAGCTAC)	2.54
GCAGCCTCTTGGGTTCTAACCTGTTGCGT (site ATGTGAACTCA)	0.00651
GCAGCCTCTTGGGTTCTAACCTGTTGCGT (site GCAGCCTCTAC)	2.08
GCAGCTACTTGGGTTCTAACCTGTTGCTG (site ACAGCTACTAA)	0.0295
GCAGCTACTTGGGTTCTAACCTGTTGCTG (site GCAGCTACTCA)	0.694
GCATCCTCTTGGGTTCTAACCTGTTGCCA (site AGGAGTACTAA)	0.146
GCATCCTCTTGGGTTCTAACCTGTTGCCA (site GCATCCTCTTG)	0.584
GCATGTCCTTGGGTTCTAACCTGTTGCAT (site GAATGTCCTAT)	0.128

Reference: the supplement of paper PMC11208160
